Values joined by “and” are separate entries in the source; they are usually repeats but may differ in a detail not shown here. Equal entries are not always repeated.
Assays:
human platelets [1] = test: Platelet aggregation inhibition (Born's method, thrombin-stimulated washed platelets); type: cell-based; conditions: 0.1 U/mL thrombin, mean +/- SD, at least six experiments in duplicate
Method: (§1) Freshly drawn venous blood from healthy volunteers of the “Centro Trasfusionale, Ospedale San Martino” in Genoa was collected into 130 mM aqueous trisodium citrate anticoagulant solution (9:1). The donors claimed to have not taken drugs known to interfere with platelet function during two weeks prior to blood collection and gave their informed consent. Washed platelets were prepared centrifuging whole blood at 100× g for 20 min. The obtained platelet-rich plasma was then centrifuged at 1100× g for 15 min. Pellet was washed once with pH 5.2 ACD solution (75 mM trisodium citrate, 42 mM citric acid and 136 mM glucose), centrifuged at 1100× g for 15 min and then re-suspended in pH 7.4 Hepes buffer (145 mM NaCl, 5 mM KCl, 1 mM MgSO4, 10 mM glucose, 10 mM HEPES).
Platelet aggregation was performed in a Bio-Data Aggregometer (Bio-Data Corporation, Horsham, PA, USA) according to Born’s method and quantified by the light transmission reached within 6 min at 37 °C. Briefly, washed platelets (3.0 × 10^8/mL) were pre-incubated for 3 min at 37 °C with saline, compound 4 or 5 before the addition of 0.1 U/mL thrombin. The IC50 values were calculated as above detailed.

human platelets [2] = test: ROS production inhibition in thrombin-stimulated washed platelets (DCFH-DA, flow cytometry); type: cell-based; conditions: for IC50: washed human platelets, 0.1 U/mL thrombin, DCFH-DA, mean +/- SD, at least six experiments in duplicate; for activity towards ROS production in platelets (in words): human platelets, thrombin stimulated
Method: as §1
ROS production was quantified as previously reported by DCFH-DA, a ROS-sensitive probe that yields upon oxidation the fluorescent adduct DCF that is trapped inside the cells. Briefly, washed platelets (1.0 × 10^8/mL), pre-incubated with saline, compounds 4 or 5, for 15 min at 37 °C, were stimulated by 0.1 U/mL thrombin. Incubation was stopped by cooling samples in ice bath and then samples were immediately analyzed in a Merck Millipore Bioscience Guava easyCyte flow cytometer (Merk Millipore, Burlington, MA, USA). The reported IC50 value is the molar concentration of the compound able to obtain 50% inhibition of the […] induced by the agonist and is calculated by the percentage of inhibition that is the inhibition of the […] measured in the presence of the agent compared with that measured in a control sample containing saline, carried out under the same conditions.

human neutrophils = test: Flow cytometric evaluation of ROS production in fMLP-activated neutrophils (DCFH-DA); type: cell-based; conditions: data not shown
Text: Heparinized (heparin 10 U/mL Vister, PfizerItalia, Borgo San Michele, Latina, Italy) venous blood was obtained from healthy male volunteers after written informed consent. Neutrophils were isolated by dextran sedimentation (Dextran 70.000 Plander, Fresenius Kabi Italia, Verona, Italy), and subsequent centrifugation on a Ficoll-Hypaque density gradient (Lympholyte-I from Cedarlane Laboratories Ltd. Hornby, ON, Canada), as described. Contaminating erythrocytes were removed by hypotonic lysis. Neutrophils were washed and resuspended in Hanks’balanced salt solution (HBSS; EuroCLone, Wetherby West, Yorkshire, UK) mixed with Dulbecco’s PBS (EuroClone; HBBS:PBS. Final cell suspensions contained 97% or more neutrophils and more than 98% viable cells, as evaluated by a trypan blue test kit (Sigma Aldrich).
Flow cytometric analysis of neutrophil oxidative metabolism was carried out according to literature method. Briefly, neutrophils, were cultured for 1 h with or without 4d and 5d at different concentration. Thereafter, neutrophils were pre-treated with 2′-7′-dichlorofluorescein-diacetate (DCFH-DA; Sigma, Milan, Italy) ([…]), During the incubation time, DCFH-DA entered into the cells, and it was cleaved by intracellular esterases to give non-fluorescence DCFH trapped within the cells. After washing in PBS, the cells were incubated for 15 min at room temperature in the presence or absence of N-formyl-L-methionin-L-leucyl-L-phenylalanine (fMLP; Sigma, Milan, Italy) ([…]) for 30 min at 37 °C. During this period, intracellular ROS oxidized DCFH to give a green fluorescence […]. The reaction was stopped by keeping the samples on ice before being analyzed by flow cytometry (FC500, Beckman Coulter).

| IC50 (human platelets [1]; Platelet) [µM] | IC50 (human platelets [2]; Homo sapiens, Platelet) [µM] | melting point [°C] | IC50 (human platelets [2]) | Molecule | activity towards ROS production in platelets (in words) (human platelets [2]) | activity towards ROS production in neutrophils (in words) (human neutrophils) | IC50 (human platelets [1]) [µM] |
| --- | --- | --- | --- | --- | --- | --- | --- |
| 29.4 ± 4.4 | 32.8 ± 2.8 | 178 to 180 |  | Nc1c(C(=O)N/N=C/c2ccc(OC(F)F)c(OC3CCCC3)c2)cnn1CC(O)c1ccccc1 (centres unmarked) [4e, (E)-5-Amino-N′-(3-(cyclopentyloxy)-4-(difluoromethoxy)benzylidene)-1-(2-hydroxy-2-phenylethyl)-1H-pyrazole-4-carbohydrazide] |  |  |  |
| > 200 | > 200 |  |  | COc1cc(/C=N/NC(=O)c2cnn(CC(O)c3ccccc3)c2N)cc(OC)c1OC (centres unmarked) [4h, (E)-5-Amino-1-(2-hydroxy-2-phenylethyl)-N′-(3,4,5-trimethoxybenzylidene)-1H-pyrazole-4-carbohydrazide] | inactive |  |  |
| > 200 | > 200 | 207 to 209 |  | COc1cccc(/C=N/NC(=O)c2cnn(CC(O)c3ccccc3)c2N)c1Oc1ccccc1 (centres unmarked) [4i, (E)-5-Amino-1-(2-hydroxy-2-phenylethyl)-N′-(3-methoxy-2-phenoxybenzylidene)-1H-pyrazole-4-carbohydrazide] | completely inactive |  |  |
| 31.5 ± 5.2 | 37.2 ± 2.5 | 206 to 207 |  | COc1ccc(/C=N/NC(=O)c2cnn3c2NC(c2ccccc2)C3)cc1OC (centres unmarked) [5a, (E)-N′-(3,4-Dimethoxybenzylidene)-2-phenyl-2,3-dihydro-1H-imidazo[1,2-b]pyrazole-7-carbohydrazide] |  |  |  |
| 9.8 ± 1.7 | ~10 | 184 to 186 | 8.6 ± 2.2 µM | Nc1c(C(=O)N/N=C/c2ccc(OC(F)F)c(Oc3ccccc3)c2)cnn1CC(O)c1ccccc1 (centres unmarked) [4f, (E)-5-Amino-N′-(4-(difluoromethoxy)-3-phenoxybenzylidene)-1-(2-hydroxy-2-phenylethyl)-1H-pyrazole-4-carbohydrazide] |  |  |  |
| > 200 | > 200 | 140 to 141 |  | COc1ccc(/C=N/NC(=O)c2cnn3c2N(C(C)=O)C(c2ccccc2)C3)cc1OC1CCCC1 (centres unmarked) [5k, (E)-1-acetyl-N′-(3-(cyclopentyloxy)-4-methoxybenzylidene)-2-phenyl-2,3-dihydro-1H-imidazo[1,2-b]pyrazole-7-carbohydrazide] | completely inactive |  |  |
| 67 ± 6.6 | 77.9 ± 7.1 |  |  | O=C(N/N=C/c1ccc2c(c1)OCO2)c1cnn2c1NC(c1ccccc1)C2 (centres unmarked) [5g, (E)-N′-(benzo[d][1,3]dioxol-5-ylmethylene)-2-phenyl-2,3-dihydro-1H-imidazo[1,2-b]pyrazole-7-carbohydrazide] |  |  |  |

The next lines start with the molecule.

| Molecule | IC50 (human platelets [1]; Platelet) [µM] | IC50 (human platelets [2]; Homo sapiens, Platelet) [µM] | melting point [°C] | IC50 (human platelets [2]) | activity towards ROS production in platelets (in words) (human platelets [2]) | activity towards ROS production in neutrophils (in words) (human neutrophils) | IC50 (human platelets [1]) [µM] |
| --- | --- | --- | --- | --- | --- | --- | --- |
| COc1cc(/C=N/NC(=O)c2cnn3c2NC(c2ccccc2)C3)cc(OC)c1OC (centres unmarked) [5h, (E)-2-Phenyl-N′-(3,4,5-trimethoxybenzylidene)-2,3-dihydro-1H-imidazo[1,2-b]pyrazole-7-carbohydrazide] | > 200 | > 200 |  |  | inactive |  |  |
| NNC(=O)c1cnn2c1NC(c1ccccc1)C2 (centres unmarked) [compound 12, 2-Phenyl-2,3-dihydro-1H-imidazo[1,2-b]pyrazole-7-carbohydrazide] |  |  |  |  | completely inactive | completely inactive |  |
| COc1ccc(/C=N/NC(=O)c2cnn3c2NC(c2ccccc2)C3)cc1OC1CCCCC1 (centres unmarked) [5f, (E)-N′-(3-(Cyclohexyloxy)-4-(methoxy)benzylidene)-2-phenyl-2,3-dihydro-1H-imidazo[1,2-b]pyrazole-7-carbohydrazide] | 61.6 ± 6.5 | 59.9 ± 5.7 | 119 to 120 |  |  |  |  |
| COc1cccc(/C=N/NC(=O)c2cnn(CC(O)c3ccccc3)c2N)c1OC1CCCC1 (centres unmarked) [4b, (E)-5-Amino-N′-(2-(cyclopentyloxy)-3-methoxybenzylidene)-1-(2-hydroxy-2-phenylethyl)-1H-pyrazole-4-carbohydrazide] | 64 ± 2.5 | 20.5 ± 2.5 | 180 to 181 |  |  |  |  |
| COc1cc(/C=N/NC(=O)c2cnn(CC(O)c3ccccc3)c2N)ccc1OC(F)F (centres unmarked) [4a, (E)-5-Amino-N′-(4-(difluoromethoxy)-3-methoxybenzylidene)-1-(2-hydroxy-2-phenylethyl)-1H-pyrazole-4-carbohydrazide] | 7.6 ± 0.5 | ~10 | 119 to 121 | 10.1 ± 2.1 µM |  |  |  |
| CCC(C)Oc1cc(/C=N/NC(=O)c2cnn3c2NC(c2ccccc2)C3)ccc1OC (centres unmarked) [5c, (E)-N′-(3-(sec-Butoxy)-4-methoxybenzylidene)-2-phenyl-2,3-dihydro-1H-imidazo[1,2-b]pyrazole-7-carbohydrazide] | 70.9 ± 4 | 71.4 ± 6 | 130 to 131 |  |  |  |  |
| (E)-5-Amino-N′-(3-(cyclopentyloxy)-4-methoxybenzylidene)-1-(2-hydroxy-2-phenylethyl)-1H-pyrazole-4-carbohydrazide [4k] |  |  |  | 90 µM and 92.7 µM |  |  | 86.1 ± 7.8 |
| COc1cccc(/C=N/NC(=O)c2cnn3c2NC(c2ccccc2)C3)c1OCc1ccccc1 (centres unmarked) [5j, (E)-N′-(2-(Benzyloxy)-3-(methoxy)benzylidene)-2-phenyl-2,3-dihydro-1H-imidazo[1,2-b]pyrazole-7-carbohydrazide] | > 200 | > 200 | 200 to 202 |  | completely inactive |  |  |
| Nc1c(C(=O)N/N=C/c2ccc(OC(F)F)c(OCc3ccccc3)c2)cnn1CC(O)c1ccccc1 (centres unmarked) [4g, (E)-5-Amino-N′-(3-(benzyloxy)-4-(difluoromethoxy)benzylidene)-1-(2-hydroxy-2-phenylethyl)-1H-pyrazole-4-carbohydrazide] | 11 ± 1.2 | ~10 | 144 to 146 | 9.5 ± 2.6 µM |  |  |  |
| CCC(C)Oc1cc(/C=N/NC(=O)c2cnn(CC(O)c3ccccc3)c2N)ccc1OC (centres unmarked) [4c, (E)-5-Amino-N′-(3-(sec-butoxy)-4-methoxybenzylidene)-1-(2-hydroxy-2-phenylethyl)-1H-pyrazole-4-carbohydrazide] | 57.1 ± 1.6 | 16.7 ± 1.1 | 190 to 193 |  |  |  |  |
| O=C(N/N=C/c1ccc(OC(F)F)c(OC2CCCC2)c1)c1cnn2c1NC(c1ccccc1)C2 (centres unmarked) [5e, (E)-N′-(3-(cyclopentyloxy)-4-(difluoromethoxy)benzylidene)-2-phenyl-2,3-dihydro-1H-imidazo[1,2-b]-pyrazole-7-carbohydrazide] | 70.5 ± 8 | 78.8 ± 5.6 |  |  |  |  |  |
| COc1cccc(/C=N/NC(=O)c2cnn3c2NC(c2ccccc2)C3)c1OC1CCCC1 (centres unmarked) [5b, (E)-N′-(2-(Cyclopentyloxy)-3-methoxybenzylidene)-2-phenyl-2,3-dihydro-1H-imidazo[1,2-b]pyrazole-7-carbohydrazide] | 59.1 ± 5.5 | 66.7 ± 5.7 |  |  |  |  |  |
| COc1cccc(/C=N/NC(=O)c2cnn3c2NC(c2ccccc2)C3)c1Oc1ccccc1 (centres unmarked) [5i, (E)-N′-(2-(Phenoxy)-3-(methoxy)benzylidene)-2-phenyl-2,3-dihydro-1H-imidazo[1,2-b]pyrazole-7-carbo-hydrazide] |  |  |  | > 200 µM | completely inactive |  | > 200 |
| COc1cccc(/C=N/NC(=O)c2cnn(CC(O)c3ccccc3)c2N)c1OCc1ccccc1 (centres unmarked) [4j, (E)-5-Amino-N′-(2-(benzyloxy)-3-methoxybenzylidene)-1-(2-hydroxy-2-phenylethyl)-1H-pyrazole-4-carbohydrazide] | > 200 | > 200 | 198 to 200 |  | completely inactive |  |  |

— article PMC7070443, “New Hybrid Pyrazole and Imidazopyrazole Antinflammatory Agents Able to Reduce ROS Production in Different Biological Targets” (Molecules, 2020)
